# Results as given in publication PMC11154717, “Evaluation of Novel Spiro-pyrrolopyridazine Derivatives as Anticancer Compounds: In Vitro Selective Cytotoxicity, Induction of Apoptosis, EGFR Inhibitory Activity, and Molecular Docking Analysis” (ACS Omega, 2024).
# Read-outs that look alike come from different tables or passages of the source.
# What was measured:
# [1] = test system: nontumorigenic HEK-293 cells; test: XTT cell viability assay, HEK-293; type: cell-based, human; conditions: Homo sapiens, HEK293, 72 h
# Protocol: (§1) Human breast cancer (MCF-7), human lung cancer (H69AR), and human prostate cancer (PC-3) human nontumorigenic HEK-293 cells were obtained from the Health Protection Agency (UK) and Interlab Cell Line Collection (ICLC, Italy). Cells were maintained in RPMI medium (Sigma) containing 10% heat-inactivated fetal bovine serum, 1% penicillin, and 1% L-glutamine in a 37° humidified CO2 incubator.
# (§2) XTT (2,3-bis(2-methoxy-4-nitro-5-sulfophenyl)-2H-tetrazolium-5-carboxanilide) cell viability test was used to determine the cytotoxic activities of SPPs, which were dissolved in dimethyl sulfoxide (DMSO). Cells were seeded in 96-well plates at a density of 10^4/well and treated with increasing concentrations of SPP (1–250 μM) for 24, 48, and 72 h. After the incubation period, 100 μL of XTT was added to all experimental wells, and 96-well plates were incubated at 37 °C for 4 h. After the color change was observed, the absorbance values of the wells were recorded at 570 nm in the microplate reader (Tecan). The IC50 values for all synthesized compounds, representing the concentration needed to inhibit 50% of cancer cell proliferation, were determined using Biosoft CalcuSyn 2.1 software.[13] The following formula was used to calculate selectivity indexes (SIs), which represent the cytotoxic selectivity of SPPs against cancer cells and normal cells (HEK-293): […]
# [2] = test system: MCF-7 breast cancer cells; test: XTT cell viability assay, MCF-7; type: cell-based, human
# Protocol: as §1, §2
# [3] = test system: H69AR lung cancer cells; test: XTT cell viability assay, H69AR; type: cell-based, human
# Protocol: as §1, §2
# [4] = test system: PC-3 prostate cancer cells; test: XTT cell viability assay, PC-3; type: cell-based, human
# Protocol: as §1, §2
# [5] = test system: MCF-7 breast cancer cells; test: Annexin V/PI flow cytometric detection of apoptosis, MCF-7; type: cell-based, human; conditions: MCF-7, treated at IC50, 72 h
# From the text: (§3) During apoptosis, PS translocates from the inner to outer regions of the plasma membrane, making it a valuable marker for apoptosis identification. Annexin V specifically attaches to PS present on the surface of apoptotic cells. To differentiate between apoptotic and viable cells with intact membranes, a secondary dye such as […] (PI) is employed. By assessing fluorescence patterns, viable cells (annexin V- and PI-) and apoptotic cells (annexin V+ and PI+) can be distinguished, providing insights into their respective percentages. We used FITC Annexin V Apoptosis Detection Kit I (BD Pharmingen).[15] […] Subsequently, cells were washed with cold PBS, resuspended in […] of 1× Binding Buffer, and stained with 5 μL of Annexin V FITC and 5 μL of PI. After vortexing, the solution was incubated at room temperature (25 °C) for 15 min in the dark. At the end of the incubation, 400 μL of 1× Binding Buffer was added to each sample, and apoptosis was assessed using flow cytometry (BD Accuri C6 Flow Cytometer).
# [6] = test system: H69AR lung cancer cells; test: Annexin V/PI flow cytometric detection of apoptosis, H69AR; type: cell-based, human; conditions: treated at IC50, 72 h
# From the text: as §3
# [7] = test system: PC-3 prostate cancer cells; test: Annexin V/PI flow cytometric detection of apoptosis, PC-3; type: cell-based, human; conditions: PC-3, treated at IC50, 72 h
# From the text: as §3
# [8] = test system: Bcl-2; test: Western blot, Bcl-2 protein level; type: cell-based, human
# Protocol: (§4) For the extraction of total proteins, the M-PER Mammalian Protein Extraction Reagent from Thermo Fisher was utilized. Specifically, cells were treated with 250 μL of the extraction reagent and incubated at room temperature for 10 min with gentle shaking at 300 rpm. After this step, the cell suspension underwent centrifugation at 14,000g for 10 min, and the resulting supernatant was collected. Determination of the protein concentration was carried out using the Bradford method. Following this, protein separation was accomplished through SDS polyacrylamide gel electrophoresis, followed by transfer to nitrocellulose membranes. Post transfer, the membranes underwent blocking with 5% nonfat dry milk for 1 h and were subjected to three washes with Tris-buffered saline (TBS). Incubation with primary antibodies (Bcl-2: Anti-Bcl-2 antibody [ab196495, Abcam]; Bax: Anti-Bax antibody [ab216494, Abcam]; cytochrome c: Anticytochrome c antibody [ab4051]; EGFR: Anti-EGFR antibody [ab32077]) occurred overnight at 4 °C. β-Actin served as the loading control. After the washing steps, the membranes were exposed to secondary antibodies for 1 h at room temperature (1:1000 dilution). Visualization of protein bands was performed using the Kodak Gel Logic 1500 imaging system, and quantification was carried out using ImageJ software.[16]
# [9] = test system: Bax; test: Western blot, Bax protein level; type: cell-based, human
# Protocol: as §4
# [10] = test system: cytochrome c; test: Western blot, cytochrome c protein level; type: cell-based, human
# Protocol: as §4
# [11] = target: EGFR (Homo sapiens, UniProt P00533); test: EGFR kinase inhibitory assay (HTRF); type: biochemical; conditions: read-out: EGFR kinase inhibition IC50
# EGFR, sequence (P00533 25-1210): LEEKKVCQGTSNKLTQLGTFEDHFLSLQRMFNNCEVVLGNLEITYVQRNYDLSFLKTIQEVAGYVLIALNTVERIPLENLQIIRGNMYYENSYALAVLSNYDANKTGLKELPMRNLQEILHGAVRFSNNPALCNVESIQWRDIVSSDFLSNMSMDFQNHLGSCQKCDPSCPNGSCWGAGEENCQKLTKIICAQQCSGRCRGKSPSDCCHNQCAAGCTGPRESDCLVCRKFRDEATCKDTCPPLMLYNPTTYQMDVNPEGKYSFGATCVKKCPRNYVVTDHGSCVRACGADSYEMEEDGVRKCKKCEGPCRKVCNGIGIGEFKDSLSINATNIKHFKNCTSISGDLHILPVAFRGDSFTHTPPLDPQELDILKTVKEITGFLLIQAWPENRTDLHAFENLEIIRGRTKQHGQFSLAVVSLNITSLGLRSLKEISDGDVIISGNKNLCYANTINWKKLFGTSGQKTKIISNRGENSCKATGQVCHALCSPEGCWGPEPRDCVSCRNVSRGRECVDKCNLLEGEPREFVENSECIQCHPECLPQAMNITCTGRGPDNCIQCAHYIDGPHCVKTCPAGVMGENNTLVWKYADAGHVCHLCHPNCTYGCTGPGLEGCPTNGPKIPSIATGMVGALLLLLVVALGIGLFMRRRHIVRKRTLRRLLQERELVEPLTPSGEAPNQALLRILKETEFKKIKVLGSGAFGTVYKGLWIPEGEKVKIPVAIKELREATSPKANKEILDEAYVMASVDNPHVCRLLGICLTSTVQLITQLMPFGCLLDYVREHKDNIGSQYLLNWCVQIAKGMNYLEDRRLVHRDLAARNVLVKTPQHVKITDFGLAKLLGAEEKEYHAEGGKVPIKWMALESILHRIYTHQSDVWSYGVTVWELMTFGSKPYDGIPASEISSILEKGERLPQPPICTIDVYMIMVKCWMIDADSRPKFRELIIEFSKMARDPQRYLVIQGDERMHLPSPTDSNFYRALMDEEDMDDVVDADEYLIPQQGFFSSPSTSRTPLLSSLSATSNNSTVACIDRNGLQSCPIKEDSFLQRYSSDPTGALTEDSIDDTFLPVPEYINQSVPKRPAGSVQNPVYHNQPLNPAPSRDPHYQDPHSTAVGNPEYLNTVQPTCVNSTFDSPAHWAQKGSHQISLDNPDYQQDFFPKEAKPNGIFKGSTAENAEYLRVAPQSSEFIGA
# Protocol: The inhibitory effects of the target compounds on various EGFR kinases were evaluated through a well-established homogeneous time-resolved fluorescence (HTRF) method-based assay, utilizing the HTRF KinEASE-TK kit (cat #62TK0PEC, Cisbio).[17] SPP10 underwent screening at progressively diluted concentrations in the presence of 1% dimethyl sulfoxide (DMSO), preceded by a 5 min preincubation of the kinase and compounds. […] Following a 1 h plate incubation, readings were taken on a microplate reader using standard HTRF settings. IC50 values were determined using GraphPad Prism 5.0 software. Each reaction was carried out in duplicate, and a minimum of three independent determinations were performed. The data were analyzed using GraphPad Prism.
# [12] = target: EGFRT790M (Homo sapiens, UniProt P00533, T790M); test: EGFRT790M kinase inhibitory assay (HTRF); type: biochemical; conditions: read-out: EGFRT790M kinase inhibition IC50
# EGFRT790M, sequence (P00533 25-1210 T790M): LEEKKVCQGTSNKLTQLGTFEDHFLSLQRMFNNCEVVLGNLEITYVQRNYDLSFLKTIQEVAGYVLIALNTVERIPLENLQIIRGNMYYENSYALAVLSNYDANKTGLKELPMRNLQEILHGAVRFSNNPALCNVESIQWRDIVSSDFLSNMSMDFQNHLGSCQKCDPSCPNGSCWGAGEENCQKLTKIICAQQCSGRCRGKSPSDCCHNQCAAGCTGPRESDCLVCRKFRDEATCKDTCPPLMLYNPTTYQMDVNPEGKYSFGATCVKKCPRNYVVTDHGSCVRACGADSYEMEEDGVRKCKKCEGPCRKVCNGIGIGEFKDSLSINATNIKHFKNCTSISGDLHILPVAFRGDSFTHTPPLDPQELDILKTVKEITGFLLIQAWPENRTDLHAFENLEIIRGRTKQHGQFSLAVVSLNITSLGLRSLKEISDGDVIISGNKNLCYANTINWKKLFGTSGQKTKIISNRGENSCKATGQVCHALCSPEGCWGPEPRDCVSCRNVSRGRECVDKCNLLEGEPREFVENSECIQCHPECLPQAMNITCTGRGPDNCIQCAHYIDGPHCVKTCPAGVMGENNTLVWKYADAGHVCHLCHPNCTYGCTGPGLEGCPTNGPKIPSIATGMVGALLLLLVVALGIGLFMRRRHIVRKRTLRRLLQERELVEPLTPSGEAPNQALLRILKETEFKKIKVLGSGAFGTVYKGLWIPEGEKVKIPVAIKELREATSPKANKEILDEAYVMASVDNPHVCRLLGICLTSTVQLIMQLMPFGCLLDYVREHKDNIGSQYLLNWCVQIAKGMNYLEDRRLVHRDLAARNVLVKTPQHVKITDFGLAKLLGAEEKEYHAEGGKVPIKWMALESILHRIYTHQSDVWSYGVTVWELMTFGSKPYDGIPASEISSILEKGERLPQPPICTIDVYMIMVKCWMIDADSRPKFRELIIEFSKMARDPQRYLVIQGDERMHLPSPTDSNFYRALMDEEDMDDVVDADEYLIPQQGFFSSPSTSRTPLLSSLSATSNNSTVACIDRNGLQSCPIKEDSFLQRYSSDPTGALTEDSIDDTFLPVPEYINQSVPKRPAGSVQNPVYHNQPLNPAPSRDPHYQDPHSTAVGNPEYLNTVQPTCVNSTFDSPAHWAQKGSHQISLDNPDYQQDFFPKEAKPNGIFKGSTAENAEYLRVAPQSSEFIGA
# Protocol: The inhibitory effects of the target compounds on various EGFR kinases were evaluated through a well-established homogeneous time-resolved fluorescence (HTRF) method-based assay, utilizing the HTRF KinEASE-TK kit (cat #62TK0PEC, Cisbio).[17] SPP10 underwent screening at progressively diluted concentrations in the presence of 1% dimethyl sulfoxide (DMSO), preceded by a 5 min preincubation of the kinase and compounds. Initiation of all reactions occurred by adding ATP and TK-substrate-biotin, followed by a 60 min incubation at room temperature and subsequent quenching with a stop buffer containing 62.5 nM Strep-XL665 and TK antibody (Ab)-Cryptate. Following a 1 h plate incubation, readings were taken on a microplate reader using standard HTRF settings. IC50 values were determined using GraphPad Prism 5.0 software. Each reaction was carried out in duplicate, and a minimum of three independent determinations were performed. The data were analyzed using GraphPad Prism.
# [13] = test system: EGFRWT; test: Western blot, EGFR protein; type: cell-based, human; conditions: 72 h, MCF-7, H69AR and PC-3 cells
# Protocol: as §4
structure (smiles),measurement,setting,value
c1ccc(-c2nnc(-c3ccccc3)c3c2C(c2ccsc2)=NC32CCCCC2)cc1 [SPP10],IC50,[1],26800 ± 400 nM
same,IC50,"[2]; Homo sapiens, MCF7, XTT, 72 h",2310 ± 300 nM
same,selectivity index (SI) MCF-7,[2]; versus HEK-293,11.6
same,IC50,"[3]; Homo sapiens, H69AR, XTT, 72 h",3160 ± 800 nM
same,selectivity index (SI) H69AR,[3]; versus HEK-293,8.48
same,IC50,"[4]; Homo sapiens, XTT, 72 h",4200 ± 200 nM
same,selectivity index (SI) PC-3,[4]; versus HEK-293,6.38
same,percentage of early apoptotic cells,[5],28.7%
same,percentage of late apoptotic cells,[5],59.3%
same,percentage of early apoptotic cells,[6],25.6%
same,percentage of late apoptotic cells,[6],61.2%
same,percentage of early apoptotic cells,[7],21.8%
same,percentage of late apoptotic cells,[7],64.9%
same,Bcl-2 protein level inhibited by,"[8]; H69AR, IC50 of SPP10, 72 h",2.6 fold
same,Bcl-2 protein level inhibited by,"[8]; MCF-7, IC50 of SPP10, 72 h",2.3 fold
same,Bcl-2 protein level inhibited by,"[8]; PC-3, IC50 of SPP10, 72 h",3.2 fold
same,Bax protein level induced by,"[9]; H69AR, IC50 of SPP10, 72 h",4.1 fold
same,Bax protein level induced by,"[9]; MCF-7, IC50 of SPP10, 72 h",3.4 fold
same,Bax protein level induced by,"[9]; PC-3, IC50 of SPP10, 72 h",5.2 fold
same,Cytochrome c level induced by,"[10]; H69AR, IC50 of SPP10, 72 h",3.6 fold
same,Cytochrome c level induced by,"[10]; MCF-7, IC50 of SPP10, 72 h",3.8 fold
same,Cytochrome c level induced by,"[10]; PC-3, IC50 of SPP10, 72 h",4.4 fold
same,IC50,[11]; in H69AR cells,200 nM
same,IC50,[11]; in MCF-7 cells,400 ± 120 nM
same,IC50,[11]; in PC-3 cells,420 ± 800 nM
same,IC50,[11]; span in cancer cells,200 to 420 nM
same,IC50,[12]; in H69AR cells,250 ± 700 nM
same,IC50,[12]; in MCF-7 cells,370 ± 200 nM
same,IC50,[12]; in PC-3 cells,390 ± 200 nM
same,inhibition of EGFRWT protein (western blot),[13],concentration-dependent inhibition
